Measurements taken from patent US20160113960A1, “TOPICAL PREPARATIONS COMPRISING HYALURONIC ACID, VERBASCOSIDE AND GLYCEROPHOSPHOINOSITOL” (ALTERGON S.A., priority 2013, published 2016).

Legend:
[1] = spectrophotometric test with 2,2-diphenyl-1-picrylhydrazyl (DPPH), radical scavenging activity; type: biochemical; conditions: for radical scavenging activity (in words): DPPH test, summary of Tables 1 and 2
Protocol: Evidence of the radical scavenging activity of the main ingredients of the formulations prepared, VB, HANa, GPI, were obtained with in vitro tests.
The anti-radical activity of VB alone and in combination with HANa and GPI was analyzed by spectrophotometric test with 2,2-diphenyl-1-picrylhydrazyl (DPPH). The samples were prepared respecting the proportions provided in the formulation.

[2] = storage stability of verbascoside with and without water; type: physicochemical
Text: Therefore, in a more preferred embodiment, the ternary association of the invention is formulated in dry form or with liquid or semi-solid anhydrous ingredients. If the final formulation requires one or more aqueous ingredients, verbascoside is preferably packaged separately in conditions of absence of water (or in the dry state or with semi-solid/liquid anhydrous ingredients) and stored in that form; a preferred semi-solid form is represented by glycerogel, or gelled semi-solid and non hydrated forms with a glycerin base; upon use, verbascoside is combined with the aqueous components, obtaining the final aqueous formulation, ready for administration. The separate packaging of the above ingredients is achievable by generally known means, e.g. double chamber bags, twin-bag double chamber dispensers, etc.

periodontitis model = conditions: rats, cited from earlier work
[3] = molecular target: T1, iNOS (inducible nitric oxide synthase) (Homo sapiens, UniProt P35228); conditions: THP-1 cells stimulated with LPS and IFN-γ; cited from earlier work
T1 construct: human THP-1 leukemia cells stimulated with pro-inflammatory stimuli (e.g. LPS and IFN-γ) in which the activity of iNOS is overexpressed; endogenous in cells; host or cells: human THP-1 leukemia cells stimulated with LPS and IFN-γ

[4] = tested on: inflammatory chemokines such as GM-GCSF, IL-8, IP-10 and MCP-1; conditions: human keratinocytes stimulated with TNFα or IFN-γ; cited from earlier work
[5] = titre of components in the muco-adhesive solution on storage at room temperature; type: physicochemical
[6] = muco-adhesive solution of Example 6
[7] = muco-adhesive solution of Example 7, solution pH 4.4, viscosity 145 mPas s
[8] = muco-adhesive solution of Example 8, solution pH 4.4, viscosity 60 mPas s
[9] = muco-adhesive solution of Example 9, iota carrageenan solution, pH 4.3

| Compound | radical scavenging activity (in words) [1] | % titre at 30 days at room temperature [5, 6] [%] | Initial % titre [5, 6] [%] | % titre at 10 days at room temperature [5, 7] [%] | Initial % titre [5, 7] [%] | % titre at 10 days at room temperature [5, 8] [%] | Initial % titre [5, 8] [%] | % titre at 30 days at room temperature [5, 9] [%] | Initial % titre [5, 9] [%] | other results |
| --- | --- | --- | --- | --- | --- | --- | --- | --- | --- | --- |
| C[C@@H]1O[C@@H](O[C@@H]2[C@@H](O)[C@H](OCCc3ccc(O)c(O)c3)O[C@H](CO)[C@H]2OC(=O)/C=C/c2ccc(O)c(O)c2)[C@H](O)[C@H](O)[C@H]1O [VB, Verbascoside] | clear | 92.5 | 99.6 | 98.71 | 101.68 | 98.55 | 102.2 | 92.9 | 101.7 | Radical scavenging activity (%) ([1]; VB concentration 3.3 μM (2.1 mg/L)): 15%; Radical scavenging activity (%) ([1]; VB concentration 6.6 μM (4.1 mg/L)): 24%; Radical scavenging activity (%) ([1]; VB concentration 13.2 μM (8.3 mg/L)): 42%; Radical scavenging activity (%) ([1]; VB concentration 26.5 μM (16.6 mg/L)): 76%; Radical scavenging activity (%) ([1]; VB concentration 53 μM (33.1 mg/L)): 95%; Radical scavenging activity (%) ([1]; concentration 15.6 mg/L): 74%; stability ([2]; in an aqueous medium): particularly labile; stability upon storage ([2]; stored in the absence of water): particularly stable; parameters of inflammation (periodontitis model; oral administration 2 mg/kg/day for 8 days): significantly reduces; anti-inflammatory effect (periodontitis model; periodontitis model): marked anti-inflammatory effect; expression and activity of iNOS and superoxide radicals [3]: significant decrease; inflammatory chemokines such as GM-GCSF, IL-8, IP-10 and MCP-1 [4]: reduces in a dose-dependent manner; time for which a high titre is maintained ([5]; after extemporaneous incorporation with the aqueous component, room temperature): at least 30 days |
| O=P(O)(OC[C@H](O)CO)OC1[C@H](O)[C@H](O)C(O)[C@H](O)[C@H]1O (stereo partly drawn) [GPI, Inositol glycerophosphate] | essentially showed no activity | 98.2 | 99.5 | 102.88 | 99.63 | 102.24 | 98.17 | 100.8 | 100.6 | Radical scavenging activity (%) ([1]; concentration 78 mg/L): 1% |
| Hyaluronic acid sodium salt [HANa] | essentially showed no activity | 100.7 | 101.3 | 96.26 | 99.32 | 96.26 | 98.48 | 114.9 | 114.6 | Radical scavenging activity (%) ([1]; concentration 62.4 mg/L): 1% |
